We go through two compounds from publication PMC4607407 (PLoS ONE, 2015).

For one data set, the system named is ST609. The data set can be described thus: Endometrial PDX panel screen. The class given is in vivo, mice. As to conditions: 100 mg/kg once daily orally 14 days.
A further data set in a line: in vivo. To be noted: mouse, oral, 100 mg/kg.
The subject of a further data set is pAKT(S473). The data set is described as follows: cells. To be noted: Homo sapiens, AN3-CA, 2 h, read-out: IC50 pAKT(S473).
A further data set has as its system ST477. The data set can be described thus: Endometrial PDX panel screen. The class given is in vivo, mice. As to conditions: 100 mg/kg once daily orally 14 days.
In the next data set the test system is ST819. The data set can be described thus: Endometrial PDX panel screen. Format: in vivo, mice. As to conditions: 100 mg/kg once daily orally 14 days.
For the next data set, the system named is ST013. The data set can be described thus: Endometrial PDX panel screen. The class given is in vivo, mice. To be noted: 100 mg/kg once daily orally 14 days.
In a further data set the test system is ST1619. The data set is described as follows: Endometrial PDX panel screen. Format: in vivo, mice.
Another data set concerns ST404. The data set is described as follows: Endometrial PDX panel screen. The class given is in vivo, mice. To be noted: 100 mg/kg once daily orally 14 days.
A further data set relates to pAKT(T308). The data set can be described thus: cells. As to conditions: Homo sapiens, AN3-CA, 2 h, read-out: IC50 pAKT(T308).
Another data set concerns ZR-75-1 xenograft. The data set can be described thus: ZR-75-1 mouse xenograft efficacy. Format: in vivo, mice. To be noted: 40 mg/kg oral, 5 days on, 2 days off and 4 days on; p<0.001.
In another data set the test system is ST1094. The data set is described as follows: Endometrial PDX panel screen. Format: in vivo, mice. To be noted: 100 mg/kg once daily orally 14 days.
The target of a further data set is T1, Met (Homo sapiens, UniProt P08581).
T1 construct: purchased Carna Biosciences, Inc. (Kobe, Japan)
The data set is described as follows: Kinase profiling (Carna Biosciences). Format: biochemical. As to the method:
(§1) The % inhibition was determined relative to DMSO control.

Another data set relates to Other 232 kinases. The data set can be described thus: Kinase profiling (Carna Biosciences). The class given is biochemical. As to conditions: panel of 245 kinases. As to the method:
as §1

A further data set concerns the target T2, Pim-3 (Homo sapiens, UniProt Q86V86).
T2 construct: purchased Carna Biosciences, Inc. (Kobe, Japan)
The data set is described as follows: Kinase profiling (Carna Biosciences). Format: biochemical. Here is the method:
as §1

The next data set addresses T3, PASK (Homo sapiens, UniProt Q96RG2).
T3 construct: purchased Carna Biosciences, Inc. (Kobe, Japan)
The data set is described as follows: Kinase profiling (Carna Biosciences). The class given is biochemical. Here is the method: as §1

For a further data set, the target named is T4, LKB1 (Homo sapiens, UniProt Q15831).
T4 construct: purchased Carna Biosciences, Inc. (Kobe, Japan)
The data set can be described thus: Kinase profiling (Carna Biosciences). The class given is biochemical. Here is the method: as §1

The target in the next data set is T5, SGK3(119-end) (Homo sapiens, UniProt Q96BR1).
T5 construct: SGK3(119-end); purchased Carna Biosciences, Inc. (Kobe, Japan)
The data set is described as follows: Kinase profiling (Carna Biosciences). The class given is biochemical. Here is the method: as §1

For the next data set, the target named is T6, Syk (Homo sapiens, UniProt P43405).
T6 construct: purchased Carna Biosciences, Inc. (Kobe, Japan)
The data set is described as follows: Kinase profiling (Carna Biosciences). Format: biochemical. Here is the method: as §1

The target in a further data set is T7, Tie2 (Homo sapiens, UniProt Q02763).
T7 construct: purchased Carna Biosciences, Inc. (Kobe, Japan)
The data set can be described thus: Kinase profiling (Carna Biosciences). The class given is biochemical. Here is the method:
as §1

The next data set addresses T8, AKT1-FL (Homo sapiens, UniProt P31749).
T8 construct: purchased Carna Biosciences, Inc. (Kobe, Japan)
The data set can be described thus: Kinase profiling (Carna Biosciences). The class given is biochemical. Here is the method: as §1

For a further data set, the target named is T9, Blk(h) (Homo sapiens, UniProt P51451).
T9 construct: purchased Carna Biosciences, Inc. (Kobe, Japan)
The data set can be described thus: Kinase profiling (Carna Biosciences). The class given is biochemical. Here is the method: as §1

The next data set deals with T10, CDK2/cyclinE (Homo sapiens, UniProt P24941).
T10 construct: purchased Carna Biosciences, Inc. (Kobe, Japan)
The data set can be described thus: Kinase profiling (Carna Biosciences). The class given is biochemical. As to the method: as §1

Another data set has as its target T11, ErbB4(HER4) (Homo sapiens, UniProt Q15303).
T11 construct: purchased Carna Biosciences, Inc. (Kobe, Japan)
The data set is described as follows: Kinase profiling (Carna Biosciences). The class given is biochemical. Here is the method: as §1

Another data set deals with T12, FAK (Homo sapiens, UniProt Q05397).
T12 construct: purchased Carna Biosciences, Inc. (Kobe, Japan)
The data set can be described thus: Kinase profiling (Carna Biosciences). The class given is biochemical. As to the method: as §1

The mark [1] stands for this setting: 100 mg/kg once daily orally 14 days.

T8 sequence (P31749 whole entry): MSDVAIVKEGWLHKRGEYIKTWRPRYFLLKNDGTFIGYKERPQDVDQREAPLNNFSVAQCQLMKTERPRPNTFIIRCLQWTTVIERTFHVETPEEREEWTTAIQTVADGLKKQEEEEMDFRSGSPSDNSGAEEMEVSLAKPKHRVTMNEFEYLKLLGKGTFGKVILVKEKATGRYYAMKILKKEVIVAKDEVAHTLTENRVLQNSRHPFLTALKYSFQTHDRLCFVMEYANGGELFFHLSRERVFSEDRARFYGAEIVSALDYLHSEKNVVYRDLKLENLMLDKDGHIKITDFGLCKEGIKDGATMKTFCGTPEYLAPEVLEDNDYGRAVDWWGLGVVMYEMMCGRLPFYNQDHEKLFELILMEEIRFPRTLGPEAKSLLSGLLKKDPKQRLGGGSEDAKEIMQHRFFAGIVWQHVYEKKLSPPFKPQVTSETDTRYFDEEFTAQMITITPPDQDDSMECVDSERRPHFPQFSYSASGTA
T5 sequence (Q96BR1 119-496 limits assumed): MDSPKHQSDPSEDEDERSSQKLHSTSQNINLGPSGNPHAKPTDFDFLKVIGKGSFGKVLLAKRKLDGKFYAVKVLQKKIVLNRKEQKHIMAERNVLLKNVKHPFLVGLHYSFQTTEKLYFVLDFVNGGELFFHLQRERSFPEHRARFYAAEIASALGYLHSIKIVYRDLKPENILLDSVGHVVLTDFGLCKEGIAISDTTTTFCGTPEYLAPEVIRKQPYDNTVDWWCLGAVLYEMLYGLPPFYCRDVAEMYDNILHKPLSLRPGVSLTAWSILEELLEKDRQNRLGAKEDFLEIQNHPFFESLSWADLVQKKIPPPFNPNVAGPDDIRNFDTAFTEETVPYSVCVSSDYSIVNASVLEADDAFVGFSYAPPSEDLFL
T9 sequence (P51451 whole entry): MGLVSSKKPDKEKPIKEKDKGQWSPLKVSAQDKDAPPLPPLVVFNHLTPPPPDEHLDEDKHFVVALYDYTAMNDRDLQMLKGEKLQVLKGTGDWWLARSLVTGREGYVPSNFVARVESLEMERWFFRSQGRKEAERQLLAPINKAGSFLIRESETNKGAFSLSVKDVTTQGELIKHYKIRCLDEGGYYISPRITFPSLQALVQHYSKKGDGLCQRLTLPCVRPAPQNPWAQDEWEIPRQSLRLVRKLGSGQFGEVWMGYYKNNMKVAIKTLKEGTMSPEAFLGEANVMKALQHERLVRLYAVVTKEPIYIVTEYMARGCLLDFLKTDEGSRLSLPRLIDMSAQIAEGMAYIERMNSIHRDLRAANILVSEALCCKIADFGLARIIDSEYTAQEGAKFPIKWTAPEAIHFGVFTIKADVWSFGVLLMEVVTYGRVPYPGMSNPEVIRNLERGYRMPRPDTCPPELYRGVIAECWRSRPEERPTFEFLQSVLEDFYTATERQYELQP
T11 sequence (Q15303 26-1308): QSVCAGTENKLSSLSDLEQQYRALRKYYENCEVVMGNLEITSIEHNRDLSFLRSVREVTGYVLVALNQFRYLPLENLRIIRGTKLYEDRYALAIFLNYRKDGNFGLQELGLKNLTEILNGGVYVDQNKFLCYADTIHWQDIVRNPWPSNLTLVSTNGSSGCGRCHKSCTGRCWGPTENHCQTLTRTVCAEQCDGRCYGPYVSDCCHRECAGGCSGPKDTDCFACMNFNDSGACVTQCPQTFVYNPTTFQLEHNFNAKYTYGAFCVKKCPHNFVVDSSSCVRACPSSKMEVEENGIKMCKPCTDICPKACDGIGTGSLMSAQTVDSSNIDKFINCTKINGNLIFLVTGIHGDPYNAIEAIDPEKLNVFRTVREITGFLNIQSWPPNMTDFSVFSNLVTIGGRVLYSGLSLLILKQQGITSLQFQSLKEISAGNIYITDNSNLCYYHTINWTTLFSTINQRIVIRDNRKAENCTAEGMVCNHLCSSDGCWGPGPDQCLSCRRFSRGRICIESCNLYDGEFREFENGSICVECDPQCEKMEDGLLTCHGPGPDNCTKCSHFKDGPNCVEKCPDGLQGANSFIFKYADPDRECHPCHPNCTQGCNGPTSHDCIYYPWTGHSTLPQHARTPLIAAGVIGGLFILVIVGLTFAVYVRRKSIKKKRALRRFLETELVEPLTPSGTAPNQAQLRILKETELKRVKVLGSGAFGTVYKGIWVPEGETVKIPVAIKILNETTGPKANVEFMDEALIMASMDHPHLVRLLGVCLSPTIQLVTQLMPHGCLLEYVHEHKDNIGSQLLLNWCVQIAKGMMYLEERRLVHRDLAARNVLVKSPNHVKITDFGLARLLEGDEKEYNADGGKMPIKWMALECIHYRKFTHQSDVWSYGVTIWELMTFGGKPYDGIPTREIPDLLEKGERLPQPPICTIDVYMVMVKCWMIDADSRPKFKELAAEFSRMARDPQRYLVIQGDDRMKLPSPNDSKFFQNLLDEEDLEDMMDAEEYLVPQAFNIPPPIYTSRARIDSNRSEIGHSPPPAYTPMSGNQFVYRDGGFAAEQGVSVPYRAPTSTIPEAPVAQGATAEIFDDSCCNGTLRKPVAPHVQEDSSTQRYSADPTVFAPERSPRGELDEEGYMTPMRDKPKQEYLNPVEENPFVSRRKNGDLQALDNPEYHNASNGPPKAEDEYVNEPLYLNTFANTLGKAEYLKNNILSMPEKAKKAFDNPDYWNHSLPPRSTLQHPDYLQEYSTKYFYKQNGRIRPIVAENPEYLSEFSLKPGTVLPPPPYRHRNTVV
T1 sequence (P08581 25-1390): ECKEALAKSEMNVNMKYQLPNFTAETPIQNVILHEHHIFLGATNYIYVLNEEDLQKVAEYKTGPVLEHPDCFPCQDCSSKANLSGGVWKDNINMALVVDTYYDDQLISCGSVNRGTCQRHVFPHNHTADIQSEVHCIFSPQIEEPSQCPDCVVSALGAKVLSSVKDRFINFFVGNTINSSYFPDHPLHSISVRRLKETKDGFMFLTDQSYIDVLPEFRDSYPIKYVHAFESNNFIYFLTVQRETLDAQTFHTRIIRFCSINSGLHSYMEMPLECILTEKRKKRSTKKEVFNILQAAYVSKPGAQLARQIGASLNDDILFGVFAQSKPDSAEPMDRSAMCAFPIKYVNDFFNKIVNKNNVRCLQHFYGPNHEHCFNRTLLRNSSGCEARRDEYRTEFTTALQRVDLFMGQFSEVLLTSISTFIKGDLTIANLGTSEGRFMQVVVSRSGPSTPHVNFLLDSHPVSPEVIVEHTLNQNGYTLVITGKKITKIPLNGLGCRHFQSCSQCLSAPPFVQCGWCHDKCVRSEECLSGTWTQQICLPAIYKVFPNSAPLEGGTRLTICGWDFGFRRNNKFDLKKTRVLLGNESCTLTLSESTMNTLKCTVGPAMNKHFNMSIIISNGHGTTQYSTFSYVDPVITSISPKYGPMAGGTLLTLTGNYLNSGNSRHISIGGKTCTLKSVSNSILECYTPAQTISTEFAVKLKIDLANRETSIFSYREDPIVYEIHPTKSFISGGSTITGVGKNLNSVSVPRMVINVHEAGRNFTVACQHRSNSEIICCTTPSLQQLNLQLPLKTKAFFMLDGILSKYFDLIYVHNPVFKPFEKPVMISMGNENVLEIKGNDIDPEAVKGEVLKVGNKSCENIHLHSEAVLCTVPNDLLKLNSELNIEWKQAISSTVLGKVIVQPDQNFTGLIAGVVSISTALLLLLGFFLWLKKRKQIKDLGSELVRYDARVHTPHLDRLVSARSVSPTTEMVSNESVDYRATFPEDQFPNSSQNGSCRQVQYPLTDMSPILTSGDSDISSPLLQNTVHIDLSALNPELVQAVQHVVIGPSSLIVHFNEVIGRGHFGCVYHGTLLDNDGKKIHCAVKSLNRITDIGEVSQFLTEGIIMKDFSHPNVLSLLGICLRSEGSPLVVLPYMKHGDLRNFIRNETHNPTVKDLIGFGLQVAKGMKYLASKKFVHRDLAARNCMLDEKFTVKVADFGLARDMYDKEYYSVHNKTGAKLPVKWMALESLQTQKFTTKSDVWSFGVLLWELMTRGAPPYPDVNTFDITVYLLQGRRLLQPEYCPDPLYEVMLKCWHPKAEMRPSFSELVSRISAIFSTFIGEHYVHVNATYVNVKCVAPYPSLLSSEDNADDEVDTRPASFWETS
Description for ZR-75-1 xenograft: For efficacy studies, AN3CA cells (5x10^6) were inoculated into female NCr nu/nu mice. When tumors reached a size of 250 mm^3, mice were randomly grouped into 5 groups. […] KPL-4 cells (1.5x10^7) were inoculated subcutaneously into female nude mice (BALB/cAJc1-nu/nu). […] ZR-75-1 tumor fragments were inoculated into female NOD/scid mice.
The tumor length and width (mm) were measured using a digital caliper. The estimated tumor volume (mm^3) was calculated according to the following formula: 0.5 x (tumor length) x (tumor width)^2, and reported as the mean ± SEM.

The IC50 is the point on the concentration scale where inhibition reaches its midpoint. Usually TGI stands for how far tumour growth fell short of that in controls. A lower TGI goes with a weaker effect on the tumour. For `Nc1ncccc1-c1nc2ccc(-c3ccccc3)nc2n1-c1ccc(C2(N)CCC2)cc1` [ARQ 092], the “% T/C” value in the data set on ST609 is given as 73%; in the data set with ST477 it was 100%; with ST819 it was 49%; in the data set on ST013, 100%; in the data set with ST1619 (setting [1]), 0%; with ST1094, 100%. Also, the Tumor Volume Mean is 953 mm³ in the data set with ST609; 225 mm³ in the data set with ST477; 229 mm³ with ST819; 540 mm³ in the data set with ST013; 261 mm³ in the data set with ST1619 (setting [1]); 632 mm³ in the data set with ST404. The compound also showed a Tumor Volume Mean in the data set with ST1094 of 394 mm³. The compound further had an MTD at 14 days in the data set “in vivo” of 100 mg/kg. Further, the IC50 in the data set on pAKT(S473) is 40 nM; in the data set with pAKT(T308), 62 nM. Further, the tumor growth inhibition result in the data set on ST1619 (MTD of 100 mg/kg) is reported as “over 90%”. For the same compound, the TGI in the data set on ZR-75-1 xenograft is 85%.
A word on the % Inhibition: it is the percentage by which the read-out fell short of the control. Low readings indicate a weak effect, high ones a strong effect. Turning to `CC(=O)N(C)C1CCN(c2cccc(-c3ccc4nc(-c5cccnc5N)n(-c5ccc(C6(N)CCC6)cc5)c4n3)c2)CC1` [ARQ 751], the “% Inhibition at 5 μM, Met” value on Met is reported as 28%. In addition, the “% Inhibition at 5 μM, Other 232 kinases” value in the data set on Other 232 kinases was below 20%. Moreover, the “% Inhibition at 5 μM, Pim-3” value at Pim-3 came to 24%. Further, the “% Inhibition at 5 μM, PASK” value at PASK is given as 26%. In addition, the “% Inhibition at 5 μM, LKB1” value at LKB1 was determined as 23%. Moreover, the “% Inhibition at 5 μM, SGK3(119-end)” value at SGK3(119-end) was determined as 28%. The “% Inhibition at 5 μM, Syk” value at Syk is on record as 21%. Also, the “% Inhibition at 5 μM, Tie2” value on Tie2 is recorded as 33%. The “% Inhibition at 5 μM, AKT1-FL” value at AKT1-FL amounted to 57%. Also, the “% Inhibition at 5 μM, Blk(h)” value at Blk(h) was determined as 40%. Further, the “% Inhibition at 5 μM, CDK2/cyclinE” value at CDK2/cyclinE is given as 21%. Moreover, the “% Inhibition at 5 μM, ErbB4(HER4)” value at ErbB4(HER4) was determined as 21%. Moreover, the “% Inhibition at 5 μM, FAK” value on FAK was determined as 20%.
